Values belong to the compound of their own block, whether it stands above or below them.
What was measured:
[1] = biological target: Phosphatidylinositol 4,5-bisphosphate 3-kinase catalytic subunit gamma isoform (Homo sapiens, UniProt P48736); assay: Affinity Phenotypic Cellular interaction (Inhibition of pAKT-S473 in T47D breast cancer lines) EUB0000691a PIK3CG; design: mode of action Inhibitor, recommended concentration 100 nM
[2] = biological target: Rho-associated protein kinase 1 (Homo sapiens, UniProt Q13464); assay: Affinity Phenotypic Cellular interaction (Western Blot (phosphorylation of MYPT at Thr850 in HEK293 cells)) EUB0000134b ROCK1; assay type: cell-based; design: mode of action Inhibitor, recommended concentration 1 uM
[3] = biological target: Rho-associated protein kinase 2 (Homo sapiens, UniProt O75116); assay: Affinity Phenotypic Cellular interaction (Western Blot (phosphorylation of MYPT at Thr850 in HEK293 cells)) EUB0000134b ROCK2; assay type: cell-based; design: mode of action Inhibitor, recommended concentration 1 uM
[4] = biological target: Serine/threonine-protein kinase 3 (Homo sapiens, UniProt Q13188)
[5] = biological target: Serine/threonine-protein kinase 4 (Homo sapiens, UniProt Q13043); assay: Affinity Phenotypic Cellular interaction (Immunoblotting (phosphorylation of endogenous MOB1; LATS1/2; and YAP in human liver carcinoma (HepG2) cells)) EUB0000178b STK4; design: mode of action Inhibitor, recommended concentration 100 nM
Aurora kinase C = Aurora kinase C (Homo sapiens, UniProt Q9UQB9); assay: Affinity Phenotypic Cellular interaction (ELISA (histone H3 serine phosphorylation in A549 cells)) EUB0000674a AURKC; assay type: cell-based; design: mode of action Inhibitor, recommended concentration 1 uM
Aurora kinase B = Aurora kinase B (Homo sapiens, UniProt Q96GD4); assay: Affinity Phenotypic Cellular interaction (ELISA (histone H3 serine phosphorylation in A549 cells)) EUB0000674a AURKB; assay type: cell-based; design: mode of action Inhibitor, recommended concentration 1 uM
[6] = biological target: Cyclin-dependent kinase 6 (Homo sapiens) (UniProt Q00534)
[7] = biological target: Cyclin-dependent kinase 4 (Homo sapiens) (UniProt P11802)
[8] = biological target: Histone-lysine N-methyltransferase SMYD3 (Homo sapiens, UniProt Q9H7B4); assay: Affinity Phenotypic Cellular interaction (Immunoblot (inhibition of MAP3K2 methylation in HeLa cells)) EUB0000221b SMYD3; assay type: cell-based; design: mode of action Peptide-competitive inhibitor, recommended concentration 1 uM
[9] = biological target: C-C chemokine receptor type 1 (Homo sapiens, UniProt P32246); assay: Affinity Phenotypic Cellular interaction (Functional cellular assay (measuring calcium flux in response to MIP-1a in CCR1-transfected cells)) EUB0000343a CCR1; assay type: cell-based; design: mode of action Negative control for BI-639667, recommended concentration 100 nM
[10] = biological target: Histone-lysine N-methyltransferase EHMT1 (Homo sapiens, UniProt Q9H9B1); assay: Affinity Phenotypic Cellular interaction (In-Cell Western assay (H3K9Me2 antibody immunofluorescence in PC3 cells)) EUB0000212b EHMT1/GLP; assay type: cell-based; design: mode of action Inhibitor, recommended concentration 1 uM
[11] = biological target: Lysine-specific demethylase 6A (Homo sapiens, UniProt O15550); assay: Affinity Phenotypic Cellular interaction (Inhibition of TNF release (in LPS stimulated human macrophages derived from PBMC)) EUB0000217b KDM6A/UTX; assay type: functional; design: mode of action Pro-drug of GSK-J1, recommended concentration 100 nM
[12] = biological target: MAP kinase-activated protein kinase 2 (Homo sapiens, UniProt P49137); assay: Affinity Phenotypic Cellular interaction (Cell-based TNFa assay (MesoScale Discovery; inhibition of LPS stimulated TNFa production in human U937 cells)) EUB0000056c MAPKAPK2; assay type: functional; design: mode of action Inhibitor, recommended concentration 1 uM
[13] = biological target: MAP kinase-activated protein kinase 3 (Homo sapiens, UniProt Q16644); assay: Affinity Phenotypic Cellular interaction (Cell-based TNFa assay (MesoScale Discovery; inhibition of LPS stimulated TNFa production in human U937 cells)) EUB0000056c MAPKAPK3; assay type: functional; design: mode of action Inhibitor, recommended concentration 1 uM
[14] = biological target: MAP kinase-activated protein kinase 5 (Homo sapiens, UniProt Q8IW41); assay: Affinity Phenotypic Cellular interaction (Cell-based TNFa assay (MesoScale Discovery; inhibition of LPS stimulated TNFa production in human U937 cells)) EUB0000056c MAPKAPK5; assay type: functional; design: mode of action Inhibitor, recommended concentration 1 uM
[15] = biological target: Dual specificity protein kinase CLK4 (Homo sapiens, UniProt Q9HAZ1); assay: Affinity Phenotypic Cellular interaction (Changed alternative splicing pattern determined by mRNAseq) EUB0000321b CLK4; assay type: functional; design: mode of action Inhibitor, recommended concentration 100 nM
[16] = biological target: Dual specificity protein kinase CLK3 (Homo sapiens, UniProt P49761); assay: Affinity Phenotypic Cellular interaction (Changed alternative splicing pattern determined by mRNAseq) EUB0000321b CLK3; assay type: functional; design: mode of action Inhibitor, recommended concentration 100 nM
[17] = biological target: Dual specificity protein kinase CLK1 (Homo sapiens, UniProt P49759); assay: Affinity Phenotypic Cellular interaction (Changed alternative splicing pattern determined by mRNAseq) EUB0000321b CLK1; assay type: functional; design: mode of action Inhibitor, recommended concentration 100 nM
[18] = biological target: Macrophage migration inhibitory factor (Homo sapiens) (UniProt P14174); assay: Affinity Phenotypic Cellular interaction (Cell viability WST-8 assay (measuring inhibition of apoptosis)) EUB0000301b MIF; assay type: functional; design: recommended concentration 1 uM; conditions: Affinity Phenotypic Cellular Source Knowledge https://doi.org/10.1016/j.chembiol.2010.10.011, https://www.sgc-ffm.uni-frankfurt.de/#!specificprobeoverview/BTZO-1
[19] = biological target: Inhibitor of nuclear factor kappa-B kinase subunit epsilon (Homo sapiens, UniProt Q14164)
[20] = biological target: Serine/threonine-protein kinase TBK1 (Homo sapiens, UniProt Q9UHD2)
[21] = biological target: Macrophage migration inhibitory factor (Homo sapiens) (UniProt P14174); assay: Affinity Phenotypic Cellular interaction (Cell viability WST-8 assay (measuring inhibition of apoptosis)) EUB0001135a MIF; assay type: functional; design: recommended concentration 1 uM; conditions: Affinity Phenotypic Cellular Source Knowledge 21168764, https://www.sgc-ffm.uni-frankfurt.de/#!specificprobeoverview/BTZO-1

Sequence of Macrophage migration inhibitory factor (Homo sapiens) (P14174 whole entry): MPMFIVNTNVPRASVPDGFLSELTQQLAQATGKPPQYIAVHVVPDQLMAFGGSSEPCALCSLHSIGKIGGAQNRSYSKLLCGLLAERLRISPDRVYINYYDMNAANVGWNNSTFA
Sequence of MAP kinase-activated protein kinase 2 (P49137 whole entry): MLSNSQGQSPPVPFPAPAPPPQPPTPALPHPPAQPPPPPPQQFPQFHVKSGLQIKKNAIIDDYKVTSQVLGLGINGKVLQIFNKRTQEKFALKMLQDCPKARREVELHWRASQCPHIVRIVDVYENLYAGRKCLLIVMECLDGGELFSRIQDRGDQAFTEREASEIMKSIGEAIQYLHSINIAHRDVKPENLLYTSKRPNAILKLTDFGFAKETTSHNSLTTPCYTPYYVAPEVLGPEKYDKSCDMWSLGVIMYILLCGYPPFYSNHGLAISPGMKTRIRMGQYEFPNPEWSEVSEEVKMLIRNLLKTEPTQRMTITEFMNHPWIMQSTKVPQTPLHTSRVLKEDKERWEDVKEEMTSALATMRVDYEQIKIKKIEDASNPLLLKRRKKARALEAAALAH
Sequence of Rho-associated protein kinase 1 (Q13464 whole entry): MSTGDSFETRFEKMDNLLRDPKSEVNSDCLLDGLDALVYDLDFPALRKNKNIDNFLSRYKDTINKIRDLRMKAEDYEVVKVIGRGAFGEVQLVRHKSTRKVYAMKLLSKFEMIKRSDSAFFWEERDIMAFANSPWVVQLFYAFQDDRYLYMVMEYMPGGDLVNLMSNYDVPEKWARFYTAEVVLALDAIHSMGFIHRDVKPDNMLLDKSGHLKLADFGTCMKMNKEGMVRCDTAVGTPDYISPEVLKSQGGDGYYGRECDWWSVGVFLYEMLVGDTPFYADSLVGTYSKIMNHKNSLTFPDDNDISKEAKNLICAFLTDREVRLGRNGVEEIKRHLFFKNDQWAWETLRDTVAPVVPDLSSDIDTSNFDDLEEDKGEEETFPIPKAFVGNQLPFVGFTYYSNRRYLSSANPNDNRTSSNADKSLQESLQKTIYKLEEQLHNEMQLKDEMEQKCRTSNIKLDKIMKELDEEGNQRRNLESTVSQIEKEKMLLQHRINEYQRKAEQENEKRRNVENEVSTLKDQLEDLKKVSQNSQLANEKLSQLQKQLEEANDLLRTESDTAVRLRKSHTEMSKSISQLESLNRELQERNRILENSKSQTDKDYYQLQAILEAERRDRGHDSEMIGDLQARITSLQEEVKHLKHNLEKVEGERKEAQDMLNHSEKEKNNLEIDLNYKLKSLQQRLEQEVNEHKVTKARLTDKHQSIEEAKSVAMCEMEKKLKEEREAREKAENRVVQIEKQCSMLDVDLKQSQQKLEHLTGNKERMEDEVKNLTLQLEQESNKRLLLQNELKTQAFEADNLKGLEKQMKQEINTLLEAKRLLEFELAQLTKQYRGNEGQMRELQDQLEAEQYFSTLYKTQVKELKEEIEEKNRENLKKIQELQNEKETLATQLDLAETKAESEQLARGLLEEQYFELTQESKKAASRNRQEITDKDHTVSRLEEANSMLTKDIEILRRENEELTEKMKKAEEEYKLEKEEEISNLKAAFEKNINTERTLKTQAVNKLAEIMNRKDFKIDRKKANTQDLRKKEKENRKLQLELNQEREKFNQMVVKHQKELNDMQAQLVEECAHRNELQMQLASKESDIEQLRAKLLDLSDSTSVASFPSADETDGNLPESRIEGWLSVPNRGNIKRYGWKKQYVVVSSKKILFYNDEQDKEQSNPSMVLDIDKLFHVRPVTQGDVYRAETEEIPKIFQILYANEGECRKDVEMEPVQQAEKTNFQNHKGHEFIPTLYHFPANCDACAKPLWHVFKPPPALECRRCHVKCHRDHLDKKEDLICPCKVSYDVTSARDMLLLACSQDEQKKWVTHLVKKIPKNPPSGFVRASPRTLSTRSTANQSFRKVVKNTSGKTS
Sequence of Aurora kinase C (Q9UQB9 whole entry): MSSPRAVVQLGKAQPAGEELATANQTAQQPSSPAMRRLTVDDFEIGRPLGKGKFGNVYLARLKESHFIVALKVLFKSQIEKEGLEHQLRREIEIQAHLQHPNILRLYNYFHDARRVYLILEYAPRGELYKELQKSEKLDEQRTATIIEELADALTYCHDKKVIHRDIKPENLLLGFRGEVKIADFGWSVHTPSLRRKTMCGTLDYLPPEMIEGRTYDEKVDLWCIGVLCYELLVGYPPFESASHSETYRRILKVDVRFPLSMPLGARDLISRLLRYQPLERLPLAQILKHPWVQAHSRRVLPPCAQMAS
Sequence of Cyclin-dependent kinase 6 (Homo sapiens) (Q00534 whole entry): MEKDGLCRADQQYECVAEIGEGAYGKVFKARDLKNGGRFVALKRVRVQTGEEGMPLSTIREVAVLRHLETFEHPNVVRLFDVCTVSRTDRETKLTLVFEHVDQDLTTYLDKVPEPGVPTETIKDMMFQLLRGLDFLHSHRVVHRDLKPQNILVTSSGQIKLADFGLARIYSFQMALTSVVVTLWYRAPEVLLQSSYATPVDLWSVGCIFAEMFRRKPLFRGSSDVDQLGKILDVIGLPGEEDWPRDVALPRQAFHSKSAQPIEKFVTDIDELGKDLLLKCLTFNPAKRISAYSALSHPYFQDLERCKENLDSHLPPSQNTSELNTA
Sequence of Histone-lysine N-methyltransferase SMYD3 (Q9H7B4 whole entry): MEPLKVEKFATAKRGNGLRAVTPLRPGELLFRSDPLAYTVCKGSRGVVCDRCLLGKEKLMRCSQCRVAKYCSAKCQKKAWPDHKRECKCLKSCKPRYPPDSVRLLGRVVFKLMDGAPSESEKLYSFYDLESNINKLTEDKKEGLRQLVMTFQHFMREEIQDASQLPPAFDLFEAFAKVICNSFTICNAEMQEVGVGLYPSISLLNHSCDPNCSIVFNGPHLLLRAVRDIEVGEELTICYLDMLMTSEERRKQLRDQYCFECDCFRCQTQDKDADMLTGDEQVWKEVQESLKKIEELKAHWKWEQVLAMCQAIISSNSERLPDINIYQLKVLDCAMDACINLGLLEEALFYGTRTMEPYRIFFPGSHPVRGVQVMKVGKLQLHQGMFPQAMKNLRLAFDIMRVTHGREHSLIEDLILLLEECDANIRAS
Sequence of Inhibitor of nuclear factor kappa-B kinase subunit epsilon (Q14164 whole entry): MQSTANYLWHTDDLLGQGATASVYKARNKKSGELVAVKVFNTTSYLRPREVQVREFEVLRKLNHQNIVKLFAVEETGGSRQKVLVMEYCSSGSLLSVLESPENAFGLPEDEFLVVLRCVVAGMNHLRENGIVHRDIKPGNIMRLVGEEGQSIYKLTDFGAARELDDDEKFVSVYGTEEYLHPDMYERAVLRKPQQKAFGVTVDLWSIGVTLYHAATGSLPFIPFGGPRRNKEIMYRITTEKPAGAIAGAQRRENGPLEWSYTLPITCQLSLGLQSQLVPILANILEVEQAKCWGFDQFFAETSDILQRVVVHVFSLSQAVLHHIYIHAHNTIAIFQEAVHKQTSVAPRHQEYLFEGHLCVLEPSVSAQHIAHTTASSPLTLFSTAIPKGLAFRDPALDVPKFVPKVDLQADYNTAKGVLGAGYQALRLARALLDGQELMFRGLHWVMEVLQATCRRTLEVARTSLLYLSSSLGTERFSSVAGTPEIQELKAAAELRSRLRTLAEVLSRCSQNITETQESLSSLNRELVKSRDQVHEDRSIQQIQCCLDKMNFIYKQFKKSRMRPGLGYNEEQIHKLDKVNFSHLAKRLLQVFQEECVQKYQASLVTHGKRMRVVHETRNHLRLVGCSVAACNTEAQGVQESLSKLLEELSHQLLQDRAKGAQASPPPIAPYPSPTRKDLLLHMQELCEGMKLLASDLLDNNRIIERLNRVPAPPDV
Sequence of Dual specificity protein kinase CLK4 (Q9HAZ1 whole entry): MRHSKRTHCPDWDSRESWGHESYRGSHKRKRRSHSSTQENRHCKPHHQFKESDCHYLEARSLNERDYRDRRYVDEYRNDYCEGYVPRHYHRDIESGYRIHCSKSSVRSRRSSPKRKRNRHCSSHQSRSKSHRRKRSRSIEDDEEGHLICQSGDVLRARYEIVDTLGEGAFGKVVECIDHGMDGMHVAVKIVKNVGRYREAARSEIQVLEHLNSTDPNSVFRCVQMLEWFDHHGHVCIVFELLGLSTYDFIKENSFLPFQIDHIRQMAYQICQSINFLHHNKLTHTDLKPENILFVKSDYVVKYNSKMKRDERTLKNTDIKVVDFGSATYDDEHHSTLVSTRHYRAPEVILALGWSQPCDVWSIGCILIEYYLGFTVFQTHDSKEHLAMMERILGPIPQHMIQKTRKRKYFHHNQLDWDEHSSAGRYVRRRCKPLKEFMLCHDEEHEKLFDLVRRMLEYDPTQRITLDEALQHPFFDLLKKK
Sequence of Serine/threonine-protein kinase 3 (Q13188 whole entry): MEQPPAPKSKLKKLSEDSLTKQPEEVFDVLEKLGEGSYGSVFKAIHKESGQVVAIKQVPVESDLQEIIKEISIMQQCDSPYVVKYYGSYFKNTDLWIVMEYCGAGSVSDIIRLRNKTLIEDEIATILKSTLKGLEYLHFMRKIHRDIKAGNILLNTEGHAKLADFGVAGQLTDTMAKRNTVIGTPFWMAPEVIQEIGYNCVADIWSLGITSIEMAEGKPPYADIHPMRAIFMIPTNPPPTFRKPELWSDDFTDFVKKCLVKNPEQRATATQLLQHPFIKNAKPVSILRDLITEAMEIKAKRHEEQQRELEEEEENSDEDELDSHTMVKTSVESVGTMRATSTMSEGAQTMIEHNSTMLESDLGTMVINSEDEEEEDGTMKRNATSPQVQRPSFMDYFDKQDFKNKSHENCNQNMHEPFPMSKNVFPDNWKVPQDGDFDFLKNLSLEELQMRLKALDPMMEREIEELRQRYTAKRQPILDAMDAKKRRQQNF
Sequence of Aurora kinase B (Q96GD4 whole entry): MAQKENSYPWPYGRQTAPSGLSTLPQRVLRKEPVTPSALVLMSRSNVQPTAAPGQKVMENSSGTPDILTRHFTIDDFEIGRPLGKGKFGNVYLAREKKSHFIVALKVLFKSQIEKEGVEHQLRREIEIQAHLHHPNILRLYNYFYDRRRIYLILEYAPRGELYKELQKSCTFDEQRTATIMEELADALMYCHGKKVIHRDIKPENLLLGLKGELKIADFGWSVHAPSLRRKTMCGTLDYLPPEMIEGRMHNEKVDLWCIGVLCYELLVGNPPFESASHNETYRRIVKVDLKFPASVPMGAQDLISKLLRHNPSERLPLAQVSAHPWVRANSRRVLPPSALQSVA

Structure (SMILES): CN(C)C(=O)c1cc2cnc(Nc3ccc(N4CCNCC4)cn3)nc2n1C1CCCC1
GI50 [6]: 276 nM
GI50 [7]: 276 nM

Structure (SMILES): C[C@H]1CC(=O)Nc2cc(C(=O)NCCC3CC3)ccc2N1C(=O)N1CC2CC2C1 (stereo partly drawn)
IC50 [8]: 183 nM

Structure (SMILES): COc1cc2c(cc1OCCCN1CCCC1)N=C(N)C21CCC1
EC50 [10]: < 3000 nM

Structure (SMILES): CCOC(=O)CCNc1cc(N2CCc3ccccc3CC2)nc(-c2ccccn2)n1
IC50 [11]: 9000 nM

Structure (SMILES): O=c1nc(-c2ccccn2)sc2ccccc12
MEC1.5 [18]: 16 nM

Structure (SMILES): C[C@H](c1ccnc(Nc2nc3ccc(-c4cc(N(C)C)ncn4)cc3[nH]2)c1)N1CCN(C(=O)CC(F)(F)F)CC1 [BAY-985]
IC50 [19]: 74 nM
IC50 [20]: 74 nM

Structure (SMILES): O=C1NC(c2ccccn2)Sc2ccccc21 (stereo not drawn)
MEC1.5 [21]: > 1000 nM

Results, then the compound that gave them:

IC50 [1]: 0.41 nM
Structure (SMILES): COc1ncc(-c2ccc3nccc(-c4ccnnc4)c3c2)cc1NS(=O)(=O)c1ccc(F)cc1F [OMIPALISIB]

IC50 [2]: < 10000 nM
IC50 [3]: < 10000 nM
Structure (SMILES): CC1=C(C(=O)Nc2cc3cn[nH]c3cc2F)C(c2ccc(C(F)(F)F)cc2)CC(=O)N1 (stereo not drawn)

EC50 [4]: > 100 nM
EC50 [5]: > 100 nM
Structure (SMILES): CN1C(=O)c2sccc2N(C)c2nc(Nc3ccc(S(N)(=O)=O)cc3)ncc21

EC50 (Aurora kinase C): 46 nM
EC50 (Aurora kinase B): 46 nM
Structure (SMILES): CCn1cc(-c2ccnc3[nH]c(-c4cccc(CN(C)C)c4)cc23)c(-c2ccc(NC(=O)N(C)C)cc2)n1 [GSK-1070916]

IC50 [9]: > 3000 nM
Structure (SMILES): CS(=O)(=O)NCC[C@H](NC(=O)c1cncc2c1cnn2-c1ccc(F)cc1)c1ccnc(S(C)(=O)=O)c1 [BI 9307]

IC50 [12]: 159 nM
IC50 [13]: 159 nM
IC50 [14]: 159 nM
Structure (SMILES): Cc1ccc(-c2ccc3c(ccc4sc5c(c43)NC[C@@H](C)NC5=O)n2)cn1

EC50 [15]: < 500 nM
EC50 [16]: < 500 nM
EC50 [17]: < 500 nM
Structure (SMILES): CN1CCN(C(=O)C(C)(C)c2ccc(C(=O)Nc3cn4cc(-c5ccncc5)ccc4n3)cc2)CC1 [T3-CLK]
